This passage reports TGI and GI50 results from PubChem BioAssay (NCI).

Some test systems named below: A498 renal; A549 NSCLC; COLO 205 colon; HL-60(TB) leukemia; HOP-62 NSCLC; HT29 colon; MCF7 breast; MDA-MB-435; NCI-H460 lung; NCI-H522 lung; OVCAR-8 ovarian; PC-3 prostate; SF-268 CNS; SW-620 colon; TK-10 renal; MOLT-4 leukemia; HOP-92 NSCLC.
Holding throughout (assay): inhibition of tumour cell growth, NCI panel, 48 h

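Tested at 5 concentrations; 48 h exposure; 96-well plates; endpoints linearly interpolated, else capped at highest concentration. GI50: concentration for 50% inhibition of growth. Definition used: TGI = concentration required for complete inhibition of growth.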 Bounds are passed on as bounds.

As to `Cc1cc(S(=O)(=O)NC2=NCC(C)(C)CN2)c(S)cc1Cl`, the TGI in the assay on A498 renal was over 100 µM; in the assay with A549 NSCLC, 49.7 µM; in the assay with COLO 205 colon, over 100 µM; with HL-60(TB) leukemia, 62.1 µM; in the assay with HOP-62 NSCLC, over 100 µM; with HT29 colon, 46.3 µM. Also, the TGI in the assay with MCF7 breast is over 100 µM; in the assay with MDA-MB-435 it was 85.1 µM; in the assay on NCI-H460 lung, over 100 µM; in the assay with NCI-H522 lung, 81.2 µM; with OVCAR-8 ovarian, 71.8 µM; with PC-3 prostate, over 100 µM. Moreover, the TGI in the assay on SF-268 CNS is over 100 µM; with SW-620 colon, 36.8 µM; with TK-10 renal it was over 100 µM.
In the case of `CN1N=C(c2ccccc2)c2cc(Cl)ccc2N=C1N/N=C/c1ccc(N(C)C)cc1`, the TGI with A549 NSCLC, with COLO 205 colon, in the assay with HL-60(TB) leukemia, with HOP-62 NSCLC, in the assay with HT29 colon and with MCF7 breast was over 100 µM throughout. The TGI with MDA-MB-435, in the assay on MOLT-4 leukemia, in the assay with NCI-H460 lung, with NCI-H522 lung, in the assay with OVCAR-8 ovarian and in the assay with PC-3 prostate was over 100 µM each time. The TGI with SF-268 CNS, in the assay with SW-620 colon and in the assay on TK-10 renal was over 100 µM each time.
Take `O=C1c2c(O)cccc2Cc2cc(CO)cc(O)c21`: the TGI was determined as 17.8 µM with A498 renal; 9.08 µM with A549 NSCLC; 4.9 µM in the assay on COLO 205 colon; 3.1 µM with HL-60(TB) leukemia; 11.9 µM in the assay on HOP-62 NSCLC; 4.21 µM in the assay on HOP-92 NSCLC. Moreover, the TGI in the assay on HT29 colon was over 100 µM; in the assay with MDA-MB-435 it was 15.5 µM; in the assay on MOLT-4 leukemia, 57.9 µM; in the assay on NCI-H460 lung, 8.04 µM; in the assay with OVCAR-8 ovarian it was 12.8 µM; in the assay on PC-3 prostate, 4.28 µM. Moreover, the values for the TGI in the assay on SF-268 CNS, in the assay on SW-620 colon and in the assay on TK-10 renal were 14.3 µM, over 100 µM and 14.9 µM, respectively.
For `COc1cc([C@@H]2c3cc4c(cc3[C@@H](NC(=O)NO)[C@H]3COC(=O)[C@H]23)OCO4)cc(OC)c1O`, the TGI in the assay with A498 renal, in the assay with COLO 205 colon, in the assay on HL-60(TB) leukemia, in the assay with HOP-62 NSCLC, in the assay with HOP-92 NSCLC and in the assay with MCF7 breast was over 100 µM in each case. Also, the TGI in the assay on MOLT-4 leukemia, in the assay with NCI-H460 lung, in the assay with NCI-H522 lung, with OVCAR-8 ovarian, in the assay on PC-3 prostate and in the assay on SF-268 CNS was over 100 µM each time. Further, the TGI with SW-620 colon and with TK-10 renal was over 100 µM throughout. Further, the GI50 is 7.84 µM in the assay on MCF7 breast, 4.87 µM in the assay on MOLT-4 leukemia and 34.4 µM with OVCAR-8 ovarian.
For `C[C@H]1S[C@H](c2c(F)cccc2F)n2c1nc1ccccc12`, the TGI with A549 NSCLC, in the assay on COLO 205 colon, in the assay with HOP-62 NSCLC, in the assay on HT29 colon, in the assay with MCF7 breast and with MDA-MB-435 was over 100 µM throughout. In addition, the TGI in the assay on MOLT-4 leukemia, in the assay on NCI-H460 lung, with OVCAR-8 ovarian, with PC-3 prostate, in the assay on SF-268 CNS and in the assay with SW-620 colon was over 100 µM in each case. Also, the TGI in the assay with TK-10 renal was over 100 µM.
For `COC1OC(Cn2cc([N+](=O)[O-])nc2C)C(O)C(O)C1O` (configuration not stated), the TGI with A498 renal, in the assay on A549 NSCLC, in the assay on COLO 205 colon, in the assay with HOP-62 NSCLC, in the assay with HOP-92 NSCLC and in the assay with HT29 colon was over 100 µM in each case. Further, the TGI in the assay on MCF7 breast, in the assay on MDA-MB-435, in the assay on MOLT-4 leukemia, with NCI-H460 lung, in the assay with NCI-H522 lung and in the assay on PC-3 prostate was over 100 µM each time. In the assay on SW-620 colon, this compound had a TGI of over 100 µM.
Consider `CCOC(=O)/C(=C\c1c(C)[nH]c2ccccc12)P(=O)(OCC)OCC`, for which the TGI in the assay on A498 renal, with A549 NSCLC, with COLO 205 colon, in the assay on HOP-62 NSCLC, in the assay with HT29 colon and in the assay with MCF7 breast was over 100 µM throughout. For the same compound, the TGI in the assay on MDA-MB-435, in the assay on MOLT-4 leukemia, with NCI-H460 lung, in the assay with NCI-H522 lung, in the assay on OVCAR-8 ovarian and in the assay with SF-268 CNS was over 100 µM each time. Further, the TGI in the assay on SW-620 colon and in the assay on TK-10 renal was over 100 µM throughout.
As for `O=C(NC(CCCCN1C(=O)c2ccccc2C1=O)P(=O)(Oc1ccccc1)Oc1ccccc1)OCc1ccccc1` (configuration not stated), the TGI in the assay with A549 NSCLC, with COLO 205 colon, with HOP-62 NSCLC, in the assay on HOP-92 NSCLC, in the assay on HT29 colon and in the assay on MCF7 breast was over 100 µM in each case. The TGI in the assay on MDA-MB-435, in the assay on NCI-H460 lung, in the assay with NCI-H522 lung, in the assay on OVCAR-8 ovarian, with PC-3 prostate and with SF-268 CNS was over 100 µM in each case. The TGI in the assay on SW-620 colon and with TK-10 renal was over 100 µM in each case.
Take `CC1N=C(c2ccccc2)OC1=O` (configuration not stated): the TGI with A498 renal, in the assay with A549 NSCLC, in the assay with COLO 205 colon, with HOP-62 NSCLC, in the assay with HOP-92 NSCLC and with HT29 colon was over 100 µM in each case. In addition, the TGI in the assay with MCF7 breast, with MDA-MB-435, with MOLT-4 leukemia, in the assay on NCI-H460 lung, with NCI-H522 lung and with OVCAR-8 ovarian was over 100 µM in each case. Also, the TGI in the assay on PC-3 prostate, in the assay with SF-268 CNS, in the assay with SW-620 colon and with TK-10 renal was over 100 µM throughout.
